The text below walks through data of patent publication US20220023216A1, “INSTANTLY SOLUBLE PARTICLE AND METHOD FOR PRODUCING THE SAME” (RICOH COMPANY, LTD., priority 2019, published 2022).

Format in all cases: physicochemical
The nature of data set [1]: Dissolution test of Test Example 1 (erlotinib, physiological saline). The following applies: physiological saline 100 mL, 25 degrees Celsius, 50 rpm. How it is done: An active pharmaceutical ingredient of erlotinib (1.6 mg) and the particle 9 (16 mg) obtained in Example 9 were each added to a physiological saline solution (0.9 w/v %) (100 mL) as a solvent, and were dissolved for 30 minutes under the following conditions: a temperature of the solution: 25 degrees Celsius; and a stirring rate: 50 rpm. Then, an amount of the pharmaceutical agent dissolved over time was quantified through liquid chromatography (detector: UV/Vis detector).

Data set [2] can be described thus: Dissolution test of Test Example 3 (ibuprofen, physiological saline). The following applies: physiological saline 100 mL, 25 degrees, 50 rpm. The source says:
Then, an amount of the pharmaceutical agent dissolved over time was quantified through liquid chromatography (detector: UV/Vis detector).

Data set [3] is described as follows: Solubility of the poorly water-soluble (pharmaceutical) compound, Table 1. The following applies: poorly-water-soluble compound (pharmaceutical compound) itself.
A short description of data set [4]: Dissolution test of Test Example 2 (imatinib, water). Particulars: water 100 mL, 25 degrees Celsius, 50 rpm. How it is done:
An active pharmaceutical ingredient of imatinib (7.35 mg) and the particle 10 (73.5 mg) obtained in Example 10 were each added to water (100 mL), and were dissolved for 30 minutes under the following conditions: a temperature of the solution: 25 degrees Celsius; and a stirring rate: 50 rpm. Then, an amount of the pharmaceutical agent dissolved over time was quantified through liquid chromatography (detector: UV/Vis detector).

The structures appear in SMILES notation. Values after ≈ are worked out from the molar mass of the structure shown.

On to `C#Cc1cccc(Nc2ncnc3cc(OCCOC)c(OCCOC)cc23)c1` [Erlotinib, erlotinib], for which the Dissolution amount entry in data set [1] (1 min) was “Not detected”; in data set [1] (3 min), 0.8 mg/mL; in data set [1] (5 min), 1 mg/mL; in data set [1] (15 min), 1.1 mg/mL; in data set [1] (30 min) it was 2 mg/mL.

On to `CC(C)Cc1ccc(C(C)C(=O)O)cc1` (stereo not drawn) [Ibuprofen, ibuprofen], for which the Dissolution amount result in data set [2] (2 min) is recorded as “Not detected”; in data set [2] (5 min), “Not detected”; in data set [2] (15 min), 5.4 mg/mL; in data set [2] (30 min), 9.7 mg/mL. Also, the concentration in solution in data set [3] (solubility) came to 20 µg/mL (≈ 97 µM).

Turning to `Cc1ccc(NC(=O)c2ccc(CN3CCN(C)CC3)cc2)cc1Nc1nccc(-c2cccnc2)n1` [Imatinib, imatinib], the Dissolution amount in data set [4] (1 min) was determined as 9.7 mg/mL; in data set [4] (3 min) it was 13.4 mg/mL; in data set [4] (5 min) it was 18 mg/mL; in data set [4] (15 min) it was 19.8 mg/mL; in data set [4] (30 min) it was 13.7 mg/mL.
